Measurements reported in patent US10246426B2, “Triazole compounds as T-type calcium channel blockers” (IDORSIA PHARMACEUTICALS LTD, priority 2014, dated 2019).

Each compound was assayed against Cav3.2 (Homo sapiens, UniProt O95180) (assay: Calcium flux FLIPR assay, HEK293 cells recombinantly expressing Cav3.2). Details: Cav3.2-channel, Ca2+ entry stimulated by 10 mM CaCl2.
Assay type: cell-based
Description: In Vitro Methods—Measurement of Calcium Channel Flux by Means of FLIPR Assays.
HEK293 cells recombinantly expressing either voltage-dependent T-type calcium channel subunit […] (Cav3.2) or voltage-dependent L-type calcium channel subunit alpha-1C (Cav1.2) are assayed for calcium flux using the calcium indicator dye Fluo-4-AM (Molecular Devices) and FLIPR technology (Fluorometric Imaging Plate Reader, Molecular Devices) (Xie X, Van Deusen A L, Vitko I, Babu D A, Davies L A, Huynh N, Cheng H, Yang N, Barrett P Q, Perez-Reyes E. Validation of high throughput screening assays against three subtypes of Ca(v)3 T-type channels using molecular and pharmacologic approaches. Assay and Drug Development Technologies 2007, 5(2), 191-203). The HEK293 cells recombinantly expressing Cav3.2 are maintained in DMEM growth medium (Life Technologies) supplemented with 10% Fetal Bovine Serum (FBS), 100 U/ml penicilin (Life Technologies), 100 μg/ml streptomycin (Life Technologies) and 1 mg/ml G418 (Life Technologies). HEK293 cells recombinantly expressing Cav1.2 are maintained in DMEM growth medium (Life technologies) supplemented with 10% FBS, 0.1 mg/ml G418 (Life Technologies), 0.1 mg/ml hygromycin (Life Technologies) and 40 ug/ml zeocin (Life Technologies).
Cells are washed once with PBS, then dissociated in 0.25% trypsin/EDTA (Life Technologies) and seeded into poly-D-lysine coated 384-well black, clear bottom plates (BD Biosciences) at a density of 30,000 cells/well. The seeded plates are incubated overnight at 37° C.
Immediately prior to performing the assay, medium is removed and cells are treated for 1 hour at 37° C. with loading buffer containing HBSS 1× (137 mM NaCl; 5.4 mM KCl; 0.25 mM Na2HPO4; 1.3 mM CaCl2; 0.4 mM MgSO04; 0.5 mM MgCl2; 0.4 mM KH2PO4, pH 7.4), 0.375 g/L NaHCO3, 20 mM Hepes, supplemented with 3 μM Fluo-4-AM and 0.15% Pluronic (Life Technologies). The cells are then washed three times with assay buffer (HBSS 1×; 0.375 g/L NaHCO3; 20 mM Hepes; 1% FBS; pH 7.4) and allowed to rest in 50 μl of wash buffer for 30 minutes.
Stock solutions of test compounds are prepared to a concentration of 10 mM in DMSO. For the Cav3.2 assay, serial dilutions of the compounds are prepared in TEAC buffer (100 mM tetraethylammonium chloride; 20 mM Hepes; 2.5 mM CaCl2; 5 mM KCl; 1 mM MgCl2; 1% FBS; pH 7.2), for the Cav1.2 assay serial dilutions are prepared in assay buffer. […] The compounds are incubated with the cells for 3 minutes and Ca2+ entry is stimulated by adding either CaCl2 to a final concentration of 10 mM (Cav3.2 assay) or by adding KCl to a final concentration of 20 mM (Cav1.2 assay). The kinetics of fluorescence increase are recorded for every well and the area under the fluorescence trace for every compound concentration is used to generate inhibition curves using non-linear regression sigmoidal concentration-response curve analysis with in-house software. IC50 values are calculated and represent the compound concentration required to inhibit 50% of the signal that is obtained in the presence of vehicle instead of test compound.

Sequence of Cav3.2 (O95180 whole entry, looked up): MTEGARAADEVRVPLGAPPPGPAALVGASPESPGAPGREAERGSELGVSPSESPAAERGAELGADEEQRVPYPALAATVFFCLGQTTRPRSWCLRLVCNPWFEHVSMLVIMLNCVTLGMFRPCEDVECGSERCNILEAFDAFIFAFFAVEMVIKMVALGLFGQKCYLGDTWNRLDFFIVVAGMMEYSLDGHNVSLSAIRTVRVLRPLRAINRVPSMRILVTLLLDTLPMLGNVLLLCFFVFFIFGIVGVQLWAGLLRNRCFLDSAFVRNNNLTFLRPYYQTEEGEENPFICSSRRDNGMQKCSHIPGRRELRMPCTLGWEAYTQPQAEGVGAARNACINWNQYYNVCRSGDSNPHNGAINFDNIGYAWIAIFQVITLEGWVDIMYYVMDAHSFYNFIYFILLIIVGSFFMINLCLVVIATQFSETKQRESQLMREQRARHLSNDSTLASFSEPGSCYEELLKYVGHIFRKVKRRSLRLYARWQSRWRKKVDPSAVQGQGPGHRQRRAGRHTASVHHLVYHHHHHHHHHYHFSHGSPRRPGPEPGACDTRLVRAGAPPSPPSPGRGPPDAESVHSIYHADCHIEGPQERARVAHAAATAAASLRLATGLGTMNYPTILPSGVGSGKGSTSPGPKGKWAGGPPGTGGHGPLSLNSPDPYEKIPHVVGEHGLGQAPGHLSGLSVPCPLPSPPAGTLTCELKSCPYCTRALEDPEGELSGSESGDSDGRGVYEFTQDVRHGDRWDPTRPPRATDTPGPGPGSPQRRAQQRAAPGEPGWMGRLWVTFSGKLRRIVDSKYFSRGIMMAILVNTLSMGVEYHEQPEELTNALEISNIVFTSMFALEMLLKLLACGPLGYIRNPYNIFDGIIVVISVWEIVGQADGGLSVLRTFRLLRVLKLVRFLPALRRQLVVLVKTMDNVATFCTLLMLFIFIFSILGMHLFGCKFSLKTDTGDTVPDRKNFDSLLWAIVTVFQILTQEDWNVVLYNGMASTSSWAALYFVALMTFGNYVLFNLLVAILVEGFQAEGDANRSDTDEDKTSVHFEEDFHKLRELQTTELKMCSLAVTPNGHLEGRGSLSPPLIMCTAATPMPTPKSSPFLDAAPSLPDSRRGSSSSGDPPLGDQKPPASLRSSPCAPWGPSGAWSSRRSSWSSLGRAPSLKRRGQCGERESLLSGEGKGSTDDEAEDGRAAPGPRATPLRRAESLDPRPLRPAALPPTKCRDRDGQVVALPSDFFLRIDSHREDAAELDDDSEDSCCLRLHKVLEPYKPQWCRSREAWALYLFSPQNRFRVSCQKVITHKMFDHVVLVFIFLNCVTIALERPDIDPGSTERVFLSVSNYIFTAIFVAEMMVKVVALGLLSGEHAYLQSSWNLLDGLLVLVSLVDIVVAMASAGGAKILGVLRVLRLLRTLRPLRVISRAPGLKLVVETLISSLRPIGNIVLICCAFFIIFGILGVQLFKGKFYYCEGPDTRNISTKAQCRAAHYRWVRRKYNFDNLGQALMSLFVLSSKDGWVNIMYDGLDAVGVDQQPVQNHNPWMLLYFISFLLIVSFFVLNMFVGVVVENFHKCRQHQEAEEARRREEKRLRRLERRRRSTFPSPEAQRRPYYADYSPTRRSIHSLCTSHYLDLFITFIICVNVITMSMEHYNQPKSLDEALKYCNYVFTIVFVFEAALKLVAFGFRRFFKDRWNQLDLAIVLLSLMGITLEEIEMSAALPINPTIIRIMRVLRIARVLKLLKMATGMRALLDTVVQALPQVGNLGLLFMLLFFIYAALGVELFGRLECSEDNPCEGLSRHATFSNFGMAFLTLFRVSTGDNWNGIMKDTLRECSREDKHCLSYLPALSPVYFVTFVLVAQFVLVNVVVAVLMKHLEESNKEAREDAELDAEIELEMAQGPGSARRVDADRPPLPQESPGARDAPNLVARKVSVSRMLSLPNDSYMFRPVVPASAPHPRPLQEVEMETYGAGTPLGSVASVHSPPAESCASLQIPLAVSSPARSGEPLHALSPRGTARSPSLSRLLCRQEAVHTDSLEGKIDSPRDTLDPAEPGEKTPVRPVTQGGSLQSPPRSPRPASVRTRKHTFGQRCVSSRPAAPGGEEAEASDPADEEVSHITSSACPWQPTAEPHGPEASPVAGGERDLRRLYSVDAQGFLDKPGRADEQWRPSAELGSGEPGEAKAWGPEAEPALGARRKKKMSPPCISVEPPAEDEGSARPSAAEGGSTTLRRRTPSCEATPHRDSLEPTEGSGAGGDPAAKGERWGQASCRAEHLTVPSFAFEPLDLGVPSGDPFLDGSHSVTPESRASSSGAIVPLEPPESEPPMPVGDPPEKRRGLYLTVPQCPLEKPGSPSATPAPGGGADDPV

`N#Cc1ccc(Cn2ncc(NC(=O)Cc3ccc(OCC4COC4)cc3)n2)cc1F` [Example 131, N-[2-(4-Cyano-3-fluoro-benzyl)-2H-[1,2,3]triazol-4-yl]-2-[4-(oxetan-3-ylmethoxy)-phenyl]-acetamide] and `COc1cc(Cn2ncc(NC(=O)Cc3ccc(OCC4COC4)cc3)n2)ccc1F` [Example 108, N-[2-(4-Fluoro-3-methoxy-benzyl)-2H-[1,2,3]triazol-4-yl]-2-[4-(oxetan-3-ylmethoxy)-phenyl]-acetamide] are within 1.5-fold of each other in IC50: 210 nM for the first, 300 nM for the second.

Compared with `COc1c(F)cc(Cn2ncc(NC(=O)Cc3ccc(OCC4(C)COC4)cc3)n2)cc1F` [Example 144, N-[2-(3,5-Difluoro-4-methoxy-benzyl)-2H-[1,2,3]triazol-4-yl]-2-[4-(3-methyl-oxetan-3-ylmethoxy)-phenyl]-acetamide], `COc1cc(Cn2ncc(NC(=O)Cc3ccc(C4(OC)COC4)cc3)n2)cc(F)c1F` [Example 228, N-[2-(3,4-Difluoro-5-methoxy-benzyl)-2H-[1,2,3]triazol-4-yl]-2-[4-(3-methoxy-oxetan-3-yl)-phenyl]-acetamide] is 5.4-fold higher in IC50: 56 nM for the first, 300 nM for the second.

Compared with `Cn1ncc2cc(CC(=O)Nc3cnn(Cc4ccc(OC(F)(F)F)c(F)c4)n3)ccc21` [Example 186, N-[2-(3-Fluoro-4-trifluoromethoxy-benzyl)-2H-[1,2,3]triazol-4-yl]-2-(1-methyl-1H-indazol-5-yl)-acetamide], `Cn1ncc2cc(CC(=O)Nc3cnn(Cc4ccc(OC(F)F)c(F)c4)n3)ccc21` [Example 179, N-[2-(4-Difluoromethoxy-3-fluoro-benzyl)-2H-[1,2,3]triazol-4-yl]-2-(1-methyl-1H-indazol-5-yl)-acetamide] is 2.5-fold higher in IC50: 8.8 nM for the first, 22 nM for the second.

Going from `COc1ccc(Cn2ncc(NC(=O)Cc3ccc4c(c3)c(C)cn4C)n2)cc1F` [Example 129, 2-(1,3-Dimethyl-1H-indol-5-yl)-N-[2-(3-fluoro-4-methoxy-benzyl)-2H-[1,2,3]triazol-4-yl]-acetamide] to `Cc1cn(C)c2cc(CC(=O)Nc3cnn(Cc4ccc(C#N)c(F)c4)n3)ccc12` [Example 105, N-[2-(4-Cyano-3-fluoro-benzyl)-2H-[1,2,3]triazol-4-yl]-2-(1,3-dimethyl-1H-indol-6-yl)-acetamide], the IC50 falls from 48 nM to 20 nM (2.4-fold). The second is the more potent here.

`CCn1ncc2cc(CC(=O)Nc3cnn(Cc4cc(F)c(OC)c(F)c4)n3)ccc21` [Example 149, N-[2-(3,5-Difluoro-4-methoxy-benzyl)-2H-[1,2,3]triazol-4-yl]-2-(1-ethyl-1H-indazol-5-yl)-acetamide] and `COc1c(F)cc(Cn2ncc(NC(=O)Cc3ccc4c(cnn4C)c3)n2)cc1F` [Example 82, N-[2-(3,5-Difluoro-4-methoxy-benzyl)-2H-[1,2,3]triazol-4-yl]-2-(1-methyl-1H-indazol-5-yl)-acetamide] are within 1.5-fold of each other in IC50: 29 nM for the first, 23 nM for the second.

Going from `COc1cc(Cn2ncc(NC(=O)Cc3ccc(C(C)(C)C)cc3)n2)ccc1C#N` [Example 239, 2-(4-tert-Butyl-phenyl)-N-[2-(4-cyano-3-methoxy-benzyl)-2H-[1,2,3]triazol-4-yl]-acetamide] to `COc1cc(Cn2ncc(NC(=O)Cc3ccc(C(C)(C)C)cc3)n2)ccc1F` [Example 119, 2-(4-tert-Butyl-phenyl)-N-[2-(4-fluoro-3-methoxy-benzyl)-2H-[1,2,3]triazol-4-yl]-acetamide], the IC50 falls from 210 nM to 62 nM (3.4-fold).

First: COc1ccc(Cn2ncc(NC(=O)Cc3ccc(C4(OC)COC4)cc3)n2)cc1F [Example 122, N-[2-(3-Fluoro-4-methoxy-benzyl)-2H-[1,2,3]triazol-4-yl]-2-[4-(3-methoxy-oxetan-3-yl)-phenyl]-acetamide]
Second: COc1ccc(Cn2ncc(NC(=O)Cc3ccc(C4(F)COC4)cc3)n2)cc1F [Example 127, N-[2-(3-Fluoro-4-methoxy-benzyl)-2H-[1,2,3]triazol-4-yl]-2-[4-(3-fluoro-oxetan-3-yl)-phenyl]-acetamide]
The IC50 of the first is 3.3-fold higher: 360 nM for the first, 110 nM for the second. The second is the more potent here.

First: CCn1ncc2cc(CC(=O)Nc3cnn(Cc4ccc(C#N)c(F)c4)n3)ccc21 [Example 139, N-[2-(4-Cyano-3-fluoro-benzyl)-2H-[1,2,3]triazol-4-yl]-2-(1-ethyl-1H-indazol-5-yl)-acetamide]
Second: Cn1ncc2ccc(CC(=O)Nc3cnn(Cc4ccc(C#N)c(F)c4)n3)cc21 [Example 132, N-[2-(4-Cyano-3-fluoro-benzyl)-2H-[1,2,3]triazol-4-yl]-2-(1-methyl-1H-indazol-6-yl)-acetamide]
The IC50 of the first is 2.6-fold lower: 69 nM for the first, 180 nM for the second. The first is the more potent here.

Going from `COc1ccc(Cn2ncc(NC(=O)Cc3ccc(C(C)C)cc3)n2)cc1F` [Example 154, N-[2-(3-Fluoro-4-methoxy-benzyl)-2H-[1,2,3]triazol-4-yl]-2-(4-isopropyl-phenyl)-acetamide] to `COc1ccc(Cn2ncc(NC(=O)Cc3ccc(OC4CC(F)(F)C4)cc3)n2)cc1F` [Example 125, 2-[4-(3,3-Difluoro-cyclobutoxy)-phenyl]-N-[2-(3-fluoro-4-methoxy-benzyl)-2H-[1,2,3]triazol-4-yl]-acetamide], the IC50 rises from 44 nM to 180 nM (4.1-fold).

Compared with `N#Cc1ccc(Cn2ncc(NC(=O)Cc3ccc(OCC4CC(F)(F)C4)cc3)n2)cc1` [Example 238, N-[2-(4-Cyano-benzyl)-2H-[1,2,3]triazol-4-yl]-2-[4-(3,3-difluoro-cyclobutylmethoxy)-phenyl]-acetamide], `COc1cc(Cn2ncc(NC(=O)Cc3ccc(OCC4CC(F)(F)C4)cc3)n2)ccc1F` [Example 111, 2-[4-(3,3-Difluoro-cyclobutylmethoxy)-phenyl]-N-[2-(4-fluoro-3-methoxy-benzyl)-2H-[1,2,3]triazol-4-yl]-acetamide] is 2.4-fold higher in IC50: 24 nM for the first, 57 nM for the second.

`COc1ccc(Cn2ncc(NC(=O)Cc3ccc(C(C)(C)C)cc3)n2)cc1` [Example 61, 2-(4-tert-Butyl-phenyl)-N-[2-(4-methoxy-benzyl)-2H-[1,2,3]triazol-4-yl]-acetamide] and `CCOc1ccc(Cn2ncc(NC(=O)Cc3ccc(C(C)(C)C)cc3)n2)cc1` [Example 43, 2-(4-tert-Butyl-phenyl)-N-[2-(4-ethoxy-benzyl)-2H-[1,2,3]triazol-4-yl]-acetamide] are within 1.5-fold of each other in IC50: 44 nM for the first, 45 nM for the second.

Going from `CCOc1ccc(Cn2ncc(NC(=O)Cc3ccc(N4CCC(F)(F)C4)nc3)n2)cc1` [Example 41, 2-[6-(3,3-Difluoro-pyrrolidin-1-yl)-pyridin-3-yl]-N-[2-(4-ethoxy-benzyl)-2H-[1,2,3]triazol-4-yl]-acetamide] to `Cc1cc(Cn2ncc(NC(=O)Cc3ccc(N4CCCC4)nc3)n2)ccc1C#N` [Example 170, N-[2-(4-Cyano-3-methyl-benzyl)-2H-[1,2,3]triazol-4-yl]-2-(6-pyrrolidin-1-yl-pyridin-3-yl)-acetamide], the IC50 rises from 18 nM to 50 nM (2.8-fold).

First: Cn1ncc2cc(CC(=O)Nc3cnn(Cc4ccc(F)c(F)c4)n3)cnc21 [Example 38, N-[2-(3,4-Difluoro-benzyl)-2H-[1,2,3]triazol-4-yl]-2-(1-methyl-1H-pyrazolo[3,4-b]pyridin-5-yl)-acetamide]
Second: COc1cc(Cn2ncc(NC(=O)Cc3ccc4cnn(C)c4c3)n2)ccc1F [Example 109, N-[2-(4-Fluoro-3-methoxy-benzyl)-2H-[1,2,3]triazol-4-yl]-2-(1-methyl-1H-indazol-6-yl)-acetamide]
The IC50 of the first is 3.1-fold higher: 580 nM for the first, 190 nM for the second. The second is the more potent here.

`COc1cc(Cn2ncc(NC(=O)Cc3ccc(C(C)(C)C)cc3)n2)cc(F)c1C#N` [Example 158, 2-(4-tert-Butyl-phenyl)-N-[2-(4-cyano-3-fluoro-5-methoxy-benzyl)-2H-[1,2,3]triazol-4-yl]-acetamide] gave an IC50 of 240 nM.
